According to patent publication EP4178570B1, “VETERINARY COMPOSITIONS FOR PREVENTING AND/OR TREATING LEISHMANIOSIS” (priority 2020, dated 2022):
Values joined by “and” are separate entries in the source; they are usually repeats but may differ in a detail not shown here. Equal entries are not always repeated.

Experiments:
L. infantum = assay: Clinical evaluation (clinical score) in open-label randomized comparative clinical field trial of canine leishmaniosis; assay type: in vivo, dogs
From the text: This was an open-label randomized comparative clinical field trial conducted in the north of Algeria. Prevalence observed in this area was 36%. Client-owned dogs of any age, breed, or gender were enrolled and 11 veterinary practitioners were responsible of the monitoring. All dogs had previously been naturally infected by L. infantum and presented clinical signs. The dogs were fully monitored and treatment could be changed to antimoniate meglumine/allopurinol at the owner's request if clinical impairment was noticed. A total of 187 dogs were enrolled for CanL. Among them, 42 adult sick dogs (30 males and 12 females), 3.8 years average age (min=1, max=11 years), weighing between 3-37 kg and of different breeds (8 german shepherd, 1 belgian shepherd malinois, 2 sloughy, 5 pointers, 6 braques, 1 bagnole, 1 americain staff, 1 beagle and 17 mixed breeds), were selected for this study.
Main inclusion criteria were: i) Dogs with at least two clinical manifestations related to CanL as detailed in the following Table 1) and ii) Dogs with positive serology for Leishmania by the immunochromatographic based qualitative rapid test WITNESS® Leishmania (Zoetis, France) and/or the quantitative indirect immunofluorescence antibody test (IFAT≥ 100) or positive PCR result obtained in blood.
Efficacy criteria were determined by reduction in clinical scores (i.e. the sum of clinical scores was lower than before treatment), in decreasing of parasite DNA and Leishmaniaspecific antibody titers. The score was defined according to the severity of each clinical sign and the final value was obtained from the sum of all the values (Table 1). Quantitative parasite load was estimated through qPCR and the antibody titers through quantitative IFAT. Table 1: Clinical signs related to CanL defined to evaluate the clinical scores of dogs.
Each manifestation was assigned a severity score ranging from 0 to 3, where 0 = none, 1 = mild, 2 = moderate, and 3 = severe (maximum total clinical score = 21). Mortality related to CanL was assessed by the highest score (22).
(§1) Selected dogs were included randomly to one of the two treatment arms. Dogs (N=26) in the Group 1: (positive control) received 100 mg/kg Antimoniate of meglumine (Glucantime®, Merial, France) daily for 28 days subcutaneously, and 30 mg/kg allopurinol (Allopurinol Arraw® 300 mg, France) orally daily for one month. Dogs (N=16) in the Group 2: (chemotherapy of the invention) received 25 mg/kg artesunate (Asu-Denk®; Denk Pharma, Germany) orally for 6 days. […] Dogs were followed up for 180 days (Figure 1).
(§2) Animals were checked on days D0, D+30, D+90 and D+180 after the treatment had started and blood samples were collected each time-points. Clinical signs and lesions associated with leishmaniosis, infection status (parasite load-qPCR and serological) were evaluated and monitored in these points.
The efficacy of treatments was assessed at each time-point based on the clinical response to treatment (evolution of clinical scores over time and the percentage reduction of the total clinical score). For each dog, the same veterinarian conducted all clinical evaluations to maintain consistency. Mortality due to CanL constitutes the higher score (22). The percentage of reduction was calculated according to the formula: Percentage reduction of CS % = (CSatD+XX−CSatD+0)/CS at D + 0) × 100 [formula]

L. infantum DNA = assay: Parasite load-qPCR in blood (kDNA) in the field trial; assay type: in vivo, dogs; parameters: Parasitemia (% of reduction): concentration or dose not given beside the values; conditions: for Parasitemia No. Leish/mL of blood / Parasitemia (% of reduction): individual dogs (one table line per dog); for Parasitemia No. Leish/mL of blood: artesunate 25 mg/kg orally 6 days, Glucantime 100 mg/kg s.c. 28 days + allopurinol 30 mg/kg orally one month
Experimental: as §1, §2
Blood samples collected in each time-point were analyzed for quantification of parasitic load by qPCR using primers and probe for detection and quantification of L. infantum DNA, targeting a conserved region of the kinetoplast minicircle DNA (kDNA) (several 1000's-fold repeated sequence). Prior to DNA extraction, 200 µL of blood were digested with proteinase K and incubated at +56°C overnight. Extraction was performed using a commercial DNA extraction kit (QIAamp DNA Mini Kit®, [Qiagen, Courtaboeuf, France]) and performed on BIOROBOT EZ1 (Qiagen, Qiagen, Courtaboeuf, France) per the manufacturer's instructions. DNA was eluted in 200 µl of distilled water and stored at -20°C until analysis. qPCR was prepared and performed as follows: 20 µL final volume containing 10 µL of Eurogentec Master Mix Roche (Eurogentec, Liège, Belgium), […] of each primer and the probe, 0.5 µL UDG, 3 µL of distilled water DNAse and RNAse free, and 5 µl of the DNA sample, was amplified in a CFX96 Real-Time system (BioRad Laboratories, Foster City, CA, USA) using the following thermal profile: one incubation step at 50°C for two minutes and an initial denaturation step at 95°C for three minutes, followed by 40 cycles of denaturation at 95°C for 15 seconds and annealing extension at 60°C for 30 seconds. Quantification was based on a standard curve which was 8 folds-serial dilution of plasmid of 10^8 copy of DNA/mL from the kDNA region, equivalent of 10000 parasites/mL; 5 µl of serial dilutions ranging from 10000 to 0.001 parasites/mL, was introduced into reaction tubes. Results were expressed as the number of Leishmania parasites present in 1 ml of blood, taking in account the volume (200 µl of blood) and the elution (200 µl) introduced during the extraction process.

[1] = system: anti-L. infantum specific immunoglobulins G (IgG); assay: Serological monitoring by quantitative IFAT in the field trial; assay type: in vivo, dogs; conditions: for Leishmania-antibody titers (mean ± SD), IFAT: artesunate 25 mg/kg orally 6 days, Glucantime 100 mg/kg s.c. 28 days + allopurinol 30 mg/kg orally one month
Experimental: as §1, §2
At day 0, the immunochromatographic based qualitative rapid test WITNESS® Leishmania (Zoetis, France) was performed according to the manufacturer's instructions using one drop (10 µL) of whole blood from each dog directly after sampling. Quantitative IFAT for the titration of anti-L. infantum specific immunoglobulins G (IgG) was performed on sera for the monitoring as described previously. Briefly, plate wells were sensitized by 20 µL of L. infantum commercial antigens (Zoetis, France). After dilution to 1:50, 20 µl of every serum dilution was applied per well and plates were incubated for 30 min at 37 °C. Plates were washed twice with PBS for 5 min and once with distilled water. 20 µL of IgG anti-dog conjugated with fluorescein isothiacyanate (FITC) (Sigma-Aldrich, St Louis, MO, USA) were added into each well. The plates were incubated for 30 min at 37 °C in the dark. After another washing step, some drops of mounting medium were added on the cover slips and reading was performed. To avoid errors of observation, all samples were examined by two different investigators and positive and negative controls were added in each plate. All samples negative at 1:50 were considered negative. Positive results were further investigated using a […] serial dilution IFAT at 1:100 to 1:1600. At this point, the samples were classified as a high positive for L. infantum (> 1:1600).

[2] = system: L. infantum life stage forms (promastigote and amastigote); conditions: Cortes et al., 2015; cited from earlier work
[3] = D+30, artesunate 25 mg/kg orally 6 days (n=15), Glucantime 100 mg/kg s.c. 28 days + allopurinol 30 mg/kg orally one month (n=26)
[4] = D+30, mortality related to CanL included, artesunate 25 mg/kg orally 6 days (n=15), Glucantime 100 mg/kg s.c. 28 days + allopurinol 30 mg/kg orally one month (n=26)
[5] = D+90, artesunate 25 mg/kg orally 6 days (n=15), Glucantime 100 mg/kg s.c. 28 days + allopurinol 30 mg/kg orally one month (n=23)
[6] = D+90, mortality related to CanL included, artesunate 25 mg/kg orally 6 days (n=15), Glucantime 100 mg/kg s.c. 28 days + allopurinol 30 mg/kg orally one month (n=23)
[7] = D+180, artesunate 25 mg/kg orally 6 days (n=15), Glucantime 100 mg/kg s.c. 28 days + allopurinol 30 mg/kg orally one month (n=22)
[8] = D+180, mortality related to CanL included, artesunate 25 mg/kg orally 6 days (n=15), Glucantime 100 mg/kg s.c. 28 days + allopurinol 30 mg/kg orally one month (n=22)

## C[C@H]1[C@H](OC(=O)CCC(=O)O)O[C@@H]2O[C@@]3(C)CC[C@H]4[C@H](C)CC[C@@H]1[C@@]24OO3 [Artesunate]
L. infantum; D+30, D+90 and D+180, p<0.0001 (Mann-Whitney)
  mean percentage of reduction of clinical score, comparison between the two groups: More improvement
L. infantum; [3]
  PARTIAL AMELIORATION (%): 80%
  PARTIAL AMELIORATION, number of dogs: 12
L. infantum; [4]
  AGGRAVATION (%): 20%
  AGGRAVATION, number of dogs: 3
L. infantum; [5]
  COMPLETE AMELIORATION (%): 20%
  COMPLETE AMELIORATION, number of dogs: 3
  NO CHANGE (%): 6.66%
  NO CHANGE, number of dogs: 1
  PARTIAL AMELIORATION (%): 53.33%
  PARTIAL AMELIORATION, number of dogs: 8
L. infantum; [6]
  AGGRAVATION (%): 20%
  AGGRAVATION, number of dogs: 3
L. infantum; D+180 (6 months following up), artesunate 25 mg/kg orally 6 days (n=15), Glucantime 100 mg/kg s.c. 28 days + allopurinol 30 mg/kg orally one month (n=22)
  PARTIAL AMELIORATION (%): 46.66%
L. infantum; [7]
  COMPLETE AMELIORATION (%) (complete recovery, CS of 0): approximately 26.66%
  COMPLETE AMELIORATION, number of dogs: 4
  PARTIAL AMELIORATION, number of dogs: 7
L. infantum; D+180, artesunate 25 mg/kg orally 6 days (n=15), Glucantime 100 mg/kg s.c. 28 days + allopurinol 30 mg/kg orally one month (n=22), listed as ARTESUNATE
  COMPLETE AMELIORATION (%) (complete recovery, CS of 0): 26.66%
L. infantum; [8]
  AGGRAVATION (%) (clinical aggravation rates): 26.66%
  AGGRAVATION, number of dogs: 4
L. infantum; D+180, part of the aggravation rate, artesunate 2/15, control group 4/22
  mortality: 13.33%
L. infantum; between D+60 after the beginning of treatments and the visit D+90
  dogs died with increasing in the clinical signs related to CanL: two
L. infantum DNA; D+30
  Parasitemia No. Leish/mL of blood: 0 No. Leish/mL of blood and 14 No. Leish/mL of blood and 44 No. Leish/mL of blood and 1,7 No. Leish/mL of blood and 0,17 No. Leish/mL of blood
L. infantum DNA; D+30 versus D0
  Parasitemia (% of reduction): 100% and 19,54% and 63,93% and 99,27% and 98,45%
L. infantum DNA; D+ 90
  Parasitemia No. Leish/mL of blood: 0 No. Leish/mL of blood (3×) and 29 No. Leish/mL of blood
L. infantum DNA; D+ 90 versus D0
  Parasitemia (% of reduction): 100% (3×) and -66,67%
L. infantum DNA; D+ 180
  Parasitemia No. Leish/mL of blood: 0 No. Leish/mL of blood
L. infantum DNA; D+ 180 versus D0
  Parasitemia (% of reduction): 100%
L. infantum DNA; qPCR in blood, over-time after treatment, dogs negative / dogs positive at D0
  initially PCR-positive dogs that turned out to be Leishmania-negative: 5/5
[1]; D+30
  Leishmania-antibody titers (mean ± SD), IFAT: 128.57 ± 212.78
[1]; D+ 30, artesunate 7/14, Glucantime/allopurinol 4/26
  dogs that became seronegative: 50%
[1]; D+ 30, artesunate 11/14, Glucantime/allopurinol 15/26
  dogs with diminution in antibody titers: 78.57%
[1]; D+ 180
  Leishmania-antibody titers (mean ± SD), IFAT: 37.50 ± 60.77
[1]; end of the follow-up, Group 1 5/17, Group 2 7/12, P-Value 0.227
  dogs turned seronegative: 58.33%
[1]; end of the study, P <0.0001
  percentage of reduction in antibody titers, comparison of groups: higher percentage of reduction
[2]
  in vitro activity against L. infantum life stage forms (promastigote and amastigote): in vitro activity

## CC1CCC2C(C)C(O)OC3OC4(C)CCC1C32O4 (centres unmarked) [deoxygenated dihydroartemisinin]
[2]
  in vitro activity against L. infantum life stage forms (promastigote and amastigote): in vitro activity

## CC1CCC2C(C)C(OC(=O)CCC(=O)O)OC3OC4(C)CCC1C32O4 (centres unmarked) [deoxygenated artesunate]
[2]
  in vitro activity against L. infantum life stage forms (promastigote and amastigote): in vitro activity
